This passage reports GI50 and TGI results from PubChem BioAssay (NCI).

Common to all, as to assay: NCI-60 cell line screen, 48 h
Assay [1] concerns A498 renal.
Assay [2] relates to BT-549 breast.
Assay [3] deals with EKVX NSCLC.
Assay [4] has as its system MDA-MB-435.
The test system of assay [5] is NCI-H226 lung.
Assay [6] relates to NCI-H522 lung.
Assay [7] relates to OVCAR-3 ovarian.
The test system of assay [8] is SK-MEL-28 melanoma.
Assay [9] has as its system SN12C renal.
The test system of assay [10] is U251 CNS.

Each structure is given as a SMILES string.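 Growth conditions: 96-well plates. Treatment: test compound, 48 hours, 5 concentrations. Analysis: linear interpolation between bracketing concentrations; unreached endpoints set to highest concentration. The concentration for 50% growth inhibition is given as GI50. TGI: total growth inhibition.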

Consider `O=C1c2cc3c(cc2-c2c1c1ccc([N+](=O)[O-])cc1c(=O)n2CCCCl)OCO3`, for which the GI50 in [1] is 0.367 µM; in assay [2] it was 0.308 µM; in [3], 6.13 µM; in [4], 1.22 µM; in assay [5], 0.409 µM; in assay [6] it was over 85.9 µM. For the same compound, the GI50 is 4.8 µM in assay [7], 0.525 µM in assay [8], 0.0862 µM in [9] and 0.0828 µM in assay [10]. For the same compound, the TGI was 5.93 µM in [1]; 24.5 µM in assay [2]; over 100 µM in assay [3]; over 100 µM in assay [4]; 9.09 µM in [5]; over 100 µM in assay [6]. In addition, the TGI in [7] was over 100 µM; in assay [8], over 100 µM; in assay [9], 0.503 µM.

For the compound `CC(C)(C)c1ccc(-c2nnc(SCc3ccc(Cl)cc3)n2-c2cccc(C(F)(F)F)c2)cc1`, the TGI in [1] was over 100 µM; in [2], over 100 µM; in [3] it was 81.9 µM; in assay [4] it was over 100 µM; in [5] it was 97.3 µM; in assay [6], over 100 µM. For the same compound, the TGI was 16.8 µM in assay [7], over 100 µM in assay [8], 14 µM in assay [9] and over 100 µM in [10].

As for `COc1ccccc1Nc1nc(-c2cc3cccc(C(F)(F)F)c3oc2=O)cs1`, the GI50 was 0.0366 µM in assay [1]; 0.26 µM in assay [2]; 0.164 µM in assay [3]; 0.0297 µM in assay [4]; 0.601 µM in assay [5]; 0.0402 µM in assay [6]. The GI50 was 0.0624 µM in [7], 1.64 µM in assay [8], 1.04 µM in [9] and 0.11 µM in [10]. Further, the TGI in assay [1] was 38.9 µM; in assay [3], over 100 µM; in assay [4] it was 0.164 µM; in [5], 56.3 µM; in [6], 1.51 µM; in [7], 0.203 µM. The TGI in assay [8] is over 100 µM; in [9] it was over 100 µM; in assay [10], 29.3 µM.

`CNCCNc1nc2ccccc2c2c(=O)c3cccc(OC)c3sc12`: the GI50 in assay [1] is 1.41 µM; in [2], 1.7 µM; in [3] it was 1.56 µM; in assay [4] it was 1.67 µM; in assay [5] it was 1.61 µM; in assay [6], 1.34 µM. The GI50 was 1.52 µM in assay [7], 1.94 µM in assay [8], 1.08 µM in assay [9] and 1.24 µM in [10]. Further, the TGI in assay [1] is 2.97 µM; in [2] it was 3.65 µM; in assay [3], 3.05 µM; in assay [4], 3.09 µM; in [5], 3.49 µM; in assay [6], 3.1 µM. The TGI was 3.02 µM in assay [7], 3.62 µM in [8], 2.53 µM in [9] and 2.65 µM in [10].

For `CC(C)[C@]12O[C@H]1[C@@H]1O[C@]13[C@]1(O[C@H]1C[C@H]1c4c(C(=O)c5ccccc5)oc(OC(=O)c5ccccc5)c4CC[C@@]13C)[C@@H]2O`, the GI50 in assay [1] was 0.0179 µM; in assay [2] it was 0.0188 µM; in assay [3] it was 0.0359 µM; in assay [4], 0.0151 µM; in assay [5], 0.025 µM; in assay [6], 0.0169 µM. Further, the GI50 is 0.0244 µM in assay [7], 0.0184 µM in assay [8], 0.0249 µM in assay [9] and 0.0863 µM in [10]. The TGI in assay [1] was found to be 0.0614 µM; in [2], 0.0951 µM; in assay [3], 1.11 µM; in [4], 0.0366 µM; in assay [5], 0.554 µM; in assay [6], 0.0913 µM. Moreover, the TGI in assay [7] is 0.154 µM; in [8], 0.0612 µM; in [9] it was 52.2 µM; in assay [10], over 100 µM.

Regarding `COc1ccc(C2CC(c3cc(OC)c(OC)c(OC)c3)=NN2)cc1` (configuration not stated), the GI50 was 5.99 µM in [1]; 8.02 µM in assay [2]; 9.26 µM in assay [3]; 2.96 µM in assay [4]; 23.8 µM in assay [5]; 3.43 µM in [6]. Besides, the GI50 in [7] is 3.74 µM; in [8], 38.7 µM; in assay [9], 31.4 µM; in assay [10], 4.52 µM. For the same compound, the TGI in assay [1] was 47.6 µM; in assay [2] it was over 100 µM; in assay [3], over 100 µM; in assay [4] it was 20.9 µM; in [5], over 100 µM; in [6], 35.9 µM. The TGI is 55.3 µM in assay [7], over 100 µM in [8], over 100 µM in assay [9] and over 100 µM in [10].

In the case of `O=C1/C(=C/c2ccc(O)cc2)CCC1CNc1ccc(Cl)cc1` (configuration not stated), the TGI in [1] was found to be 28.4 µM; in [2] it was 26.5 µM; in [3], 21.5 µM; in assay [4], 17.3 µM; in assay [5], 25.8 µM; in [6], 2.49 µM. For the same compound, the TGI in [7] was found to be 6.1 µM; in assay [8], 24.2 µM; in assay [9] it was 9.25 µM; in assay [10], 21.3 µM.

In the case of `CSC(=S)N/N=C(\C)c1ccccn1`, the GI50 in [1] was 0.458 µM; in assay [2], 0.44 µM; in assay [3] it was 0.117 µM; in [4], 0.407 µM; in assay [5], 0.335 µM; in assay [6] it was 0.0339 µM. Also, the GI50 in assay [7] was under 0.01 µM; in assay [8] it was 0.429 µM; in assay [9] it was 0.454 µM; in [10], 0.199 µM. Also, the TGI in [1] was found to be 6.33 µM; in assay [2] it was 14.8 µM; in assay [3], 17.5 µM; in [4], 16.6 µM; in [5] it was 3.45 µM; in [6], 0.368 µM. In addition, the TGI in [8] was found to be 17.5 µM; in assay [9], 37.5 µM; in assay [10], 13.6 µM.

On to `O=[N+]([O-])c1ccc2[nH]cc(-c3c4ccccc4cc4[nH]c5ccc([N+](=O)[O-])cc5c34)c2c1`, for which the GI50 is 1.53 µM in assay [1]; 2.29 µM in [2]; 2.4 µM in [3]; 1.8 µM in assay [4]; 2.2 µM in [5]; 2.12 µM in assay [6]. Also, the GI50 in assay [7] was 2.57 µM; in assay [8], 1.8 µM; in [9], 2.84 µM; in [10] it was 2.81 µM. The TGI was 4.25 µM in assay [1]; 5.94 µM in assay [2]; 8.41 µM in assay [3]; 4.89 µM in [4]; 5.8 µM in assay [5]; 6.1 µM in assay [6]. Besides, the TGI in assay [7] came to 7.32 µM; in assay [8], 3.71 µM; in [9], 7.92 µM; in assay [10] it was 8.41 µM.

Turning to `COc1ccc(-n2c(N)c(C(=O)NCCN3CCOCC3)c3nc4ccccc4nc32)cc1OC`, the GI50 is 7.98 µM in assay [1]; 27.6 µM in assay [2]; 40.2 µM in assay [3]; 12.8 µM in assay [4]; 11.4 µM in [5]; 8.07 µM in [6]. Further, the GI50 in assay [7] is 20.3 µM; in assay [8], 32.1 µM; in assay [9], 5.29 µM; in assay [10], 8.68 µM. The TGI in assay [1], in [2], in assay [3], in assay [4], in assay [5] and in [6] was over 100 µM in each case. Besides, the TGI in [7], in assay [8], in assay [9] and in assay [10] was over 100 µM each time.

On to `Cn1cccc1-c1cc(-c2ccc(Br)cc2)nc(N)c1C#N`, for which the GI50 was 91.8 µM in [1]; 69.7 µM in assay [2]; over 100 µM in [3]; over 100 µM in assay [4]; 63.8 µM in assay [5]; 66 µM in assay [6]. For the same compound, the GI50 in assay [7], in assay [8], in [9] and in assay [10] was over 100 µM each time. Moreover, the TGI in [1], in assay [2], in assay [3], in [4], in [5] and in [6] was over 100 µM in each case. The TGI in assay [7], in assay [8], in assay [9] and in [10] was over 100 µM each time.

Turning to `CC(O)CN(CCN(CC(C)O)CC(C)O)CC(C)O.O=[N+]([O-])O.[Cu+2]` (configuration not stated), the GI50 is 30.9 µM in [1]; over 100 µM in assay [2]; 67.3 µM in [3]; over 100 µM in [4]; over 100 µM in assay [5]; over 100 µM in [6]. Moreover, the GI50 in assay [7], in assay [8], in [9] and in assay [10] was over 100 µM throughout. Also, the TGI was 63.3 µM in [1]; over 100 µM in assay [2]; over 100 µM in assay [3]; over 100 µM in assay [4]; over 100 µM in assay [5]; over 100 µM in assay [6]. Also, the TGI in assay [7], in assay [8], in assay [9] and in [10] was over 100 µM in each case.

With `Cc1ccc(Cl)cc1Nc1nc(C(F)(F)F)ccc1C(=O)Oc1ccc(Cl)cc1`, the GI50 in assay [1] is 11.9 µM; in assay [2] it was 15.6 µM; in [3], 7.26 µM; in assay [4], 16.8 µM; in assay [5], 12.1 µM; in [6] it was 22.3 µM. Besides, the GI50 in assay [7] was 2.55 µM; in assay [8], 21.9 µM; in assay [9], 14.5 µM; in [10], 4.15 µM. Besides, the TGI in [1] is 33.2 µM; in assay [2], 36.3 µM; in assay [3] it was 22.8 µM; in assay [4], 51.9 µM; in [5], 36.1 µM; in assay [6], over 100 µM. Further, the TGI is 8.81 µM in assay [7], over 100 µM in assay [8], 43.8 µM in assay [9] and 16.1 µM in [10].

Take `O=Cc1ccc(C(F)(F)F)cc1.[C-]#[O+].[C-]#[O+].[C-]#[O+].[Cr]`: the GI50 in [1] was 21.4 µM; in assay [2] it was 40.1 µM; in [3], 16.3 µM; in [4], 14.3 µM; in assay [5] it was 21.6 µM; in assay [6], 23.7 µM. In addition, the GI50 in [7] was 25.4 µM; in [8] it was 63 µM; in [9], 22.6 µM; in [10], 26.8 µM. Also, the TGI in [1] was over 100 µM; in assay [2] it was over 100 µM; in [3] it was 45 µM; in [4] it was 45.7 µM; in [5], 98.4 µM; in assay [6], over 100 µM. For the same compound, the TGI in [7] is over 100 µM; in [8] it was over 100 µM; in [9], 82.1 µM; in assay [10] it was over 100 µM.

For the compound `O=C(Nc1ccccc1Cl)c1ccc(NC2=C(Cl)C(=O)N(Cc3ccccc3)C2=O)cc1`, the GI50 in assay [1] was over 100 µM; in [2] it was 43 µM; in assay [3], over 100 µM; in assay [4], 48.4 µM; in assay [5], 32.5 µM; in assay [6], 17.9 µM. In addition, the GI50 in assay [7] was 18.7 µM; in [8] it was 43 µM; in assay [9], 27.8 µM; in [10] it was 38.4 µM. In addition, the TGI in assay [1] was over 100 µM; in [2] it was over 100 µM; in assay [3], over 100 µM; in assay [4], over 100 µM; in [5] it was 92.3 µM; in [6], 38.8 µM. For the same compound, the TGI in assay [7] was 36.6 µM; in assay [8], over 100 µM; in assay [9], 73.7 µM; in assay [10], over 100 µM.

Consider `CC(C)(C)NNc1c([N+](=O)[O-])cnn(-c2ccccc2)c1=O`, for which the TGI in assay [1] was over 100 µM; in assay [2], 2.7 µM; in assay [3], 25.6 µM; in assay [4], 3.27 µM; in [5], 14.7 µM; in assay [6] it was 4.72 µM. Also, the TGI in assay [7] was 5.54 µM; in assay [8], 5.79 µM; in [9] it was 6.35 µM; in assay [10], 8.05 µM.
